Experiments:
[1] = tested on: HCT116 colon carcinoma cells; experiment: Cell death Elisa (DNA fragmentation) after adenoviral SISP-1 infection; format: cell-based, human; details: etoposide 30 μM, 24 hours, 12 hour post infection
Procedure: (§1) Next, the inventor investigated the apoptotic effects of SISP-1 expression in human colon cancer cells and breast carcinoma cells by using adenovirus expressing SISP-1. […] Adenoviruses expressing HA-tagged SISP-1 (Ad-SISP-1) or GFP (Ad-GFP as a control) were generated, amplified and titrated. HCT 116 colon carcinoma cells and MDAMB435 breast cancer cells were grown to 50-70% confluency and infected with recombinant adenovirus at multiplicity of infection (MOI) of 15-30. […] Then, cell death rate was measured by DNA fragmentation assay (Cell death Elisa kit, Roche).

[2] = tested on: MDAMB435 breast cancer cells; experiment: as above; format: cell-based, human; details: etoposide 30 μM, 24 hours, 12 hour post infection
Procedure: as §1

U2OS osteosarcoma cells [3] = experiment: Cell-Death Elisa, tetracycline-inducible SISP-1 plus etoposide; format: cell-based; details: SISP-1 or etoposide (15 μM) alone, FIG. 9A
Procedure: U2OS-tet-on-SISP-1 cells were generated by isolating tetracycline regulated stable-clones expressing SISP-1 upon tetracycline addition (doxycycline, Sigma). U2OS-SISP-1 cells were cultured in the presence or absence of doxycycline (1 μg/ml) for 24 hours.

U2OS osteosarcoma cells [4] = experiment: Etoposide-induced cell death with inducible SISP-1 (FIG. 10); format: cell-based; details: over 48 hours
Source text: (§2) The present inventor further examined whether SISP-1 could also sensitize U2OS cells that is known to be quite resistant to chemo-drugs.
(§3) The inventor re-evaluated this effect in a rapidly growing human bladder carcinoma cell line, EJ, since SISP-1 may be used a strong candidate as a new sensitizing molecule that improves the therapeutic efficacy and minimizes the toxicity of chemo-drugs. To further confirm the sensitizing effects of SISP-1 expression in a combination of chemo-drugs, we generated tumor cells containing the tetracycline-regulated inducible expression of SISP-1 using U2OS and EJ lines.

[5] = tested on: EJ bladder carcinoma cells; experiment: as above; format: cell-based, human; details: over 48 hours
Source text: as §2, §3

[6] = tested on: IMR90 normal diploid fibroblasts; experiment: Northern blot of SISP-1 mRNA induction by genotoxic drugs; format: cell-based; details: IMR90 cells; etoposide 50 μM or CPT 600 nM, 24-48 hours; FIG. 4A
Procedure: IMR90 normal diploid fibroblasts (Obtained from ATCC) were cultured in Dulbecco's modified Eagle's medium (DMEM, Invitrogen)) containing 10% fetal bovine serum (FBS, Hyclone), 100 units/ml of penicillin, and 100 μg/ml of streptomycin at 37° C. […] Then, total RNA was extracted, denatured, electrophoresed through a 1% agarose-formaldehyde gel and transferred to a nylon membrane. Hybridization was performed with ^32P-labeled probes, SISP1, p21 or 36B4 (a loading control) prepared by the randomly primed DNA labeling method.

SMILES	sensitization of SISP-1 overexpressing cells by etoposide [1]	sensitization of SISP-1 overexpressing cells by etoposide [2]	cell death by single treatment (U2OS osteosarcoma cells [3])	cell death by etoposide itself (U2OS osteosarcoma cells [4])	cell death by etoposide itself [5]	expression of SISP-1 mRNA [6]
COc1cc([C@@H]2c3cc4c(cc3[C@@H](O[C@@H]3O[C@@H]5CO[C@@H](C)O[C@H]5[C@H](O)[C@H]3O)[C@H]3COC(=O)[C@H]23)OCO4)cc(OC)c1O [etoposide, reference compound]	selectively sensitized	selectively sensitized	did not induce cell death	induced a limited cell death	induced a limited cell death	
CC[C@@]1(O)C(=O)OCc2c1cc1n(c2=O)Cc2cc3ccccc3nc2-1 [CPT, camptothecin]						induced
